Laboratory results taken from patent US20240101557A1, “FUSED TRICYCLIC COMPOUNDS AS INHIBITORS OF KRAS G12V MUTANTS” (INCYTE CORPORATION, priority 2022, published 2024).

Legend:
KRAS G12D = KRAS G12D (Homo sapiens, UniProt P01116, G12D); assay: GDP-GTP exchange assay (bodipy-GDP for GppNHp, with SOS1), KRAS G12D; format: biochemical; settings: bodipy-loaded KRAS G12D 2.5 nM, 4 h pre-incubation, 2 h after GppNHp/SOS1; read-out: G12D_exchange
Protocol: (§1) The inhibitor potency of the exemplified compounds was determined in a fluorescence based guanine nucleotide exchange assay, which measures the exchange of bodipy-GDP (fluorescently labeled GDP) for GppNHp (Non-hydrolyzable GTP analog) to generate the active state of KRAS in the presence of SOS1 (guanine nucleotide exchange factor). Inhibitors were serially diluted in DMSO and a volume of 0.1 μL was transferred to the wells of a black low volume 384-well plate. 5 μL/well volume of bodipy-loaded KRAS G12D diluted to 2.5 nM in assay buffer (25 mM Hepes pH 7.5, 50 mM NaCl, 10 mM MgCl2 and 0.01% Brij-35) was added to the plate and pre-incubated with inhibitor for 4 h at ambient temperature. Appropriate controls (enzyme with no inhibitor or with a G12D inhibitor) were included on the plate. The exchange was initiated by the addition of a 5 μL/well volume containing 1 mM GppNHp and 300 nM SOS1 in assay buffer. The 10 μL/well reaction concentration of the bodipy-loaded KRAS G12D, GppNHp, and SOS1 were 2.5 nM, 500 uM, and 150 nM, respectively. The reaction plates were incubated at ambient temperature for 2 h, a time estimated for complete GDP-GTP exchange in the absence of inhibitor. For the KRAS G12V mutant, similar guanine nucleotide exchange assays were used with 2.5 nM as final concentration for the bodipy loaded KRAS proteins and 3 h incubation after adding GppNHp-SOS1 mixture. A cyclic peptide described to selectively bind G12D mutant (Sakamoto et al., BBRC 484.3 (2017), 605-611) or internal compounds with confirmed binding were used as positive controls in the assay plates. Fluorescence intensities were measured on a PheraStar plate reader instrument (BMG Labtech) with excitation at 485 nm and emission at 520 nm.
(§2) Either GraphPad prism or Genedata Screener SmartFit was used to analyze the data. The IC50 values were derived by fitting the data to a four parameter logistic equation producing a sigmoidal dose-response curve with a variable Hill coefficient.
(§3) The symbol “†” indicates IC50≤100 nM, “††” indicates IC50>100 nM but ≤1 μM; and “†††” indicates IC50 is >1 μM but ≤5 μM, “††††” indicates IC50 is >5 μM but ≤10 μM. “NA” indicates IC50 not available.

KRAS G12V mutant = KRAS G12V mutant (Homo sapiens, UniProt P01116, G12V); assay: GDP-GTP exchange assay (bodipy-GDP for GppNHp, with SOS1), KRAS G12V; format: biochemical; settings: bodipy-loaded KRAS G12V 2.5 nM, 3 h incubation after GppNHp-SOS1; read-out: G12V_ exchange
Protocol: as §1, §2, §3

KRAS G12V = assay: G12V_cell (cellular assay on KRAS G12V cells, method not named in Table 1); format: cell-based; settings: cell line and readout not stated
Protocol: MIA PaCa-2 (KRAS G12C; ATCC® CRL-1420), NCI-H358 (KRAS G12C; ATCC® CRL-5807), A427 (KRAS G12D; ATCC® HTB53), HPAFII (KRAS G12D; ATCC® CRL-1997), YAPC (KRAS G12V; DSMZ ACC382), SW480 (KRAS G12V; ATCC® CRL-228) and NCI-H838 (KRAS WT; ATCC® CRL-5844) cells are cultured in RPMI 1640 media supplemented with 10% FBS (Gibco/Life Technologies). Eight hundred cells per well in RPMI 1640 media supplemented with 2% FBS are seeded into white, clear bottomed 384-well Costar tissue culture plates containing 50 nL dots of test compounds (final concentration is a 1:500 dilution, with a final concentration in 0.2% DMSO). Plates are incubated for 3 days at […], 5% CO2. At the end of the assay, 25 ul/well of CellTiter-Glo reagent (Promega) is added. Luminescence is read after 15 min. with a PHERAstar (BMG). Data are analyzed in Genedata Screener using SmartFit for IC50 values.
MIA PaCa-2 (KRAS G12C; ATCC® CRL-1420), NCI-H358 (KRAS G12C; ATCC® CRL-5807), A427 (KRAS G12D; ATCC® HTB53), HPAFII (KRAS G12D; ATCC® CRL-1997), YAPC (KRAS G12V; DSMZ ACC382), SW480 (KRAS G12V; ATCC® CRL-228) and NCI-H838 (KRAS WT; ATCC® CRL-5844) cells are purchased from ATCC and maintained in RPMI 1640 media supplemented with 10% FBS (Gibco/Life Technologies). The cells are plated at 5000 cells per well (8 uL) into Greiner 384-well low volume, flat-bottom, and tissue culture treated white plates and incubated overnight at […], 5% CO2. The next morning, test compound stock solutions are diluted in media at 3× the final concentration and 4 uL are added to the cells, with a final concentration of 0.1% of DMSO. The cells are incubated with the test compounds for 4 h (G12C and G12V) or 2 hrs (G12D) at 37° C., 5% CO2. Four uL of 4× lysis buffer with blocking reagent (Cisbio) are added to each well and plates are rotated gently (300 rpm) for 30 min. at r.t. Four uL per well of Cisbio anti Phospho-ERK ½ d2 is mixed with anti Phospho-ERK ½ Cryptate (1:1), and added to each well, incubated overnight in the dark at r.t. Plates are read on the Pherastar plate reader at 665 nm and 620 nm wavelengths. Data are analyzed in Genedata Screener using SmartFit for IC50 values.

Sequence of KRAS G12D (P01116 1-188 isoform P01116-2 G12D): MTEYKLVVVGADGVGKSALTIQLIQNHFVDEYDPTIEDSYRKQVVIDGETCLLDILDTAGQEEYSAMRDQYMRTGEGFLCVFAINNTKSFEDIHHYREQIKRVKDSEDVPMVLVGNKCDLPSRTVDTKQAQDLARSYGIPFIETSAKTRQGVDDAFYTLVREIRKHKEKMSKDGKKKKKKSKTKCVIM
Sequence of KRAS G12V mutant (P01116 1-188 isoform P01116-2 G12V): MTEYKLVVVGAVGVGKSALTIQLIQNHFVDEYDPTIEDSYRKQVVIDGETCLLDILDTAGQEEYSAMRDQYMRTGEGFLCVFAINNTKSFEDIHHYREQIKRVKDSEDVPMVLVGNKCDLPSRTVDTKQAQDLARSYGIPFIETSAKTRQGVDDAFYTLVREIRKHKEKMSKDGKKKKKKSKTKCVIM

SMILES	IC50 (KRAS G12D) [nM]	IC50 (KRAS G12V mutant) [nM]	IC50 (KRAS G12V) [nM]
CC(=O)N1CCC[C@@H]1c1cc2c(O[C@@H](C)[C@@H]3CCCN3C)nc3c(F)c(-c4cccc(Cl)c4Cl)c(CCC#N)cc3c2n1[C@H]1[C@H]2CN[C@@H]1C2 [Example 1, 3-(2-((R)-1-Acetylpyrrolidin-2-yl)-1-((1R,4R,5S)-2-azabicyclo[2.1.1]hexan-5-yl)-7-(2,3-dichlorophenyl)-6-fluoro-4-((S)-1-((S)-1-methylpyrrolidin-2-yl)ethoxy)-1H-pyrrolo[3,2-c]quinolin-8-yl)propanenitrile]	≤ 100	≤ 100	≤ 100
C[C@H](Oc1nc2c(F)c(-c3cccc4ccc(F)cc34)c(CCC#N)cc2c2c1cc(-c1cnn(C)c1C(=O)N(C)C)n2[C@H]1[C@H]2CN[C@@H]1C2)[C@@H]1CCCN1C [Example 2, 4-(1-((1R,4R,5S)-2-Azabicyclo[2.1.1]hexan-5-yl)-8-(2-cyanoethyl)-6-fluoro-7-(7-fluoronaphthalen-1-yl)-4-((S)-1-((S)-1-methylpyrrolidin-2-yl)ethoxy)-1H-pyrrolo[3,2-c]quinolin-2-yl)-N,N,1-trimethyl-1H-pyrazole-5-carboxamide]	≤ 100	≤ 100	≤ 100
CC(=O)N1CCC[C@@H]1c1cc2c(O[C@@H](C)[C@@H]3CCCN3C)nc3c(F)c(-c4cccc5c4C(C#N)CCC5)c(C)cc3c2n1[C@H]1[C@H]2CN[C@@H]1C2 (stereo partly drawn) [Example 4, 8-(2-((R)-1-Acetylpyrrolidin-2-yl)-1-((1R,4R,5S)-2-azabicyclo[2.1.1]hexan-5-yl)-6-fluoro-8-methyl-4-((S)-1-((S)-1-methylpyrrolidin-2-yl)ethoxy)-1H-pyrrolo[3,2-c]quinolin-7-yl)-1,2,3,4-tetrahydronaphthalene-1-carbonitrile]	≤ 100	≤ 100	≤ 100
CC(=O)N1[C@@H](c2cc3c(O[C@@H](C)[C@@H]4CCCN4C)nc4c(F)c(-c5cccc6c5C(C#N)CCC6)c(C)cc4c3n2[C@H]2[C@H]3CN[C@@H]2C3)C[C@@H]2C[C@@H]21 (stereo partly drawn) [Example 7, 8-(2-((1S,3R,5S)-2-Acetyl-2-azabicyclo[3.1.0]hexan-3-yl)-1-((1R,4R,5S)-2-azabicyclo[2.1.1]hexan-5-yl)-6-fluoro-8-methyl-4-((S)-1-((S)-1-methylpyrrolidin-2-yl)ethoxy)-1H-pyrrolo[3,2-c]quinolin-7-yl)-1,2,3,4-tetrahydronaphthalene-1-carbonitrile]	≤ 100	≤ 100	≤ 100
C[C@H](Oc1nc2c(F)c(-c3cccc(Cl)c3Cl)c(CCC#N)cc2c2c1cc([C@H]1C[C@H](Oc3ncccc3F)CN1C(=O)C1CC1)n2[C@H]1[C@H]2CN[C@@H]1C2)[C@@H]1CCCN1C [Example 9, 3-(1-((1R,4R,5S)-2-Azabicyclo[2.1.1]hexan-5-yl)-2-((2R,4S)-1-(cyclopropanecarbonyl)-4-((3-fluoropyridin-2-yl)oxy)pyrrolidin-2-yl)-7-(2,3-dichlorophenyl)-6-fluoro-4-((S)-1-((S)-1-methylpyrrolidin-2-yl)ethoxy)-1H-pyrrolo[3,2-c]quinolin-8-yl)propanenitrile]	≤ 100	≤ 100	≤ 100

The remaining lines, values ahead:

IC50 (KRAS G12D) [nM]	IC50 (KRAS G12V mutant) [nM]	IC50 (KRAS G12V) [nM]	SMILES
≤ 100	≤ 100	≤ 100	CC(=O)N1CCC[C@@H]1c1c(Cl)c2c(O[C@@H](C)[C@@H]3CCCN3C)nc3c(F)c(-c4cccc(Cl)c4Cl)c(CCC#N)cc3c2n1[C@H]1[C@H]2CN[C@@H]1C2 [Example 3, 3-(2-((R)-1-Acetylpyrrolidin-2-yl)-1-((1R,4R,5S)-2-azabicyclo[2.1.1]hexan-5-yl)-3-chloro-7-(2,3-dichlorophenyl)-6-fluoro-4-((S)-1-((S)-1-methylpyrrolidin-2-yl)ethoxy)-1H-pyrrolo[3,2-c]quinolin-8-yl)propanenitrile]
≤ 100	≤ 100	≤ 100	CC(=O)N1CCC[C@@H]1c1cc2c(O[C@@H](C)[C@@H]3CCCN3C)nc3c(F)c(-c4cccc5ncc(F)cc45)c(CCC#N)cc3c2n1[C@H]1[C@H]2CN[C@@H]1C2 [Example 5, 3-(2-((R)-1-Acetylpyrrolidin-2-yl)-1-((1R,4R,5S)-2-azabicyclo[2.1.1]hexan-5-yl)-6-fluoro-7-(3-fluoroquinolin-5-yl)-4-((S)-1-((S)-1-methylpyrrolidin-2-yl)ethoxy)-1H-pyrrolo[3,2-c]quinolin-8-yl)propanenitrile]
≤ 100	≤ 100	≤ 100	COC(=O)N1C[C@@H](Oc2ccccn2)C[C@@H]1c1cc2c(O[C@@H](C)[C@@H]3CCCN3C)nc3c(F)c(-c4cccc(Cl)c4Cl)c(CCC#N)cc3c2n1[C@H]1[C@H]2CN[C@@H]1C2 [Example 6, Methyl (2R,4S)-2-(1-((1R,4R,5S)-2-azabicyclo[2.1.1]hexan-5-yl)-8-(2-cyanoethyl)-7-(2,3-dichlorophenyl)-6-fluoro-4-((S)-1-((S)-1-methylpyrrolidin-2-yl)ethoxy)-1H-pyrrolo[3,2-c]quinolin-2-yl)-4-(pyridin-2-yloxy)pyrrolidine-1-carboxylate]
≤ 100	≤ 100	≤ 100	C[C@H](Oc1nc2c(F)c(-c3cccc(Cl)c3Cl)c(CCC#N)cc2c2c1cc([C@H]1C[C@H](OC(F)F)CN1C(=O)C1CC1)n2[C@H]1[C@H]2CN[C@@H]1C2)[C@@H]1CCCN1C [Example 8, 3-(1-((1R,4R,5S)-2-Azabicyclo[2.1.1]hexan-5-yl)-2-((2R,4S)-1-(cyclopropanecarbonyl)-4-(difluoromethoxy)pyrrolidin-2-yl)-7-(2,3-dichlorophenyl)-6-fluoro-4-((S)-1-((S)-1-methylpyrrolidin-2-yl)ethoxy)-1H-pyrrolo[3,2-c]quinolin-8-yl)propanenitrile]
≤ 100	≤ 100	≤ 100	C[C@H](Oc1nc2c(F)c(-c3cccc(Cl)c3Cl)c(CCC#N)cc2c2c1cc([C@H]1C[C@H](F)CN1C(=O)C1CC1)n2[C@H]1[C@H]2CN[C@@H]1C2)[C@@H]1CCCN1C [Example 10, 3-(1-((1R,4R,5S)-2-Azabicyclo[2.1.1]hexan-5-yl)-2-((2R,4S)-1-(cyclopropanecarbonyl)-4-fluoropyrrolidin-2-yl)-7-(2,3-dichlorophenyl)-6-fluoro-4-((S)-1-((S)-1-methylpyrrolidin-2-yl)ethoxy)-1H-pyrrolo[3,2-c]quinolin-8-yl)propanenitrile]
